Like-named read-outs stand apart in the source and are kept apart here.
Legend:
Assay in all cases: Glasshouse assay for herbicidal activity (pre- and post-emergence), percentage phytotoxicity
Format in all cases: in vivo
Avena fatua (AVEFA) = conditions: Avena fatua
Method in brief: (§1)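 Visual phytotoxicity score, 0% = undamaged to 100% = total kill, read 20 days after treatment for PRE and 15 days for POST. Pots of standard soil; treatment at day 1 (PRE) or roughly day 12 (POST). Glasshouse: 16 h photoperiod, 65% RH, 24/18 or 20/16 °C by climate type.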

[1] = system: Alopecurus myosuroides (ALOMY); conditions: Alopecurus myosuroides
Method in brief: as §1

[2] = system: Echinochloa crus-galli (ECHCG); conditions: Echinochloa crus-galli
Method in brief: as §1

Lolium perenne (LOLPE) = conditions: Lolium perenne
Method in brief: as §1

[3] = post-emergence, 360 h, 250 g/ha, post-emergence, 15 DAA, visual assessment (100%=total damage, 0%=no damage), read-out: Post-emergence herbicidal activity (percentage phytotoxicity) AVEFA POST
[4] = pre-emergence, 480 h, 250 g/ha, pre-emergence, 20 DAA, visual assessment (100%=total damage, 0%=no damage), read-out: Pre-emergence herbicidal activity (percentage phytotoxicity) AVEFA PRE
[5] = post-emergence, 360 h, 250 g/ha, post-emergence, 15 DAA, visual assessment (100%=total damage, 0%=no damage), read-out: Post-emergence herbicidal activity (percentage phytotoxicity) ALOMY POST
[6] = pre-emergence, 480 h, 250 g/ha, pre-emergence, 20 DAA, visual assessment (100%=total damage, 0%=no damage), read-out: Pre-emergence herbicidal activity (percentage phytotoxicity) ALOMY PRE
[7] = post-emergence, 360 h, 250 g/ha, post-emergence, 15 DAA, visual assessment (100%=total damage, 0%=no damage), read-out: Post-emergence herbicidal activity (percentage phytotoxicity) ECHCG POST
[8] = pre-emergence, 480 h, 250 g/ha, pre-emergence, 20 DAA, visual assessment (100%=total damage, 0%=no damage), read-out: Pre-emergence herbicidal activity (percentage phytotoxicity) ECHCG PRE
[9] = post-emergence, 360 h, 250 g/ha, post-emergence, 15 DAA, visual assessment (100%=total damage, 0%=no damage), read-out: Post-emergence herbicidal activity (percentage phytotoxicity) LOLPE POST
[10] = pre-emergence, 480 h, 250 g/ha, pre-emergence, 20 DAA, visual assessment (100%=total damage, 0%=no damage), read-out: Pre-emergence herbicidal activity (percentage phytotoxicity) LOLPE PRE
[11] = post-emergence, 360 h, Rate 250 g/ha, post-emergence, assessed visually 15 DAA, 100%=total damage, 0%=no damage, read-out: Post-emergence herbicidal activity (percentage phytotoxicity) AVEFA POST
[12] = pre-emergence, 480 h, Rate 250 g/ha, pre-emergence, assessed visually 20 DAA, 100%=total damage, 0%=no damage, read-out: Pre-emergence herbicidal activity (percentage phytotoxicity) AVEFA PRE
[13] = post-emergence, 360 h, Rate 250 g/ha, post-emergence, assessed visually 15 DAA, 100%=total damage, 0%=no damage, read-out: Post-emergence herbicidal activity (percentage phytotoxicity) ALOMY POST
[14] = pre-emergence, 480 h, Rate 250 g/ha, pre-emergence, assessed visually 20 DAA, 100%=total damage, 0%=no damage, read-out: Pre-emergence herbicidal activity (percentage phytotoxicity) ALOMY PRE
[15] = post-emergence, 360 h, Rate 250 g/ha, post-emergence, assessed visually 15 DAA, 100%=total damage, 0%=no damage, read-out: Post-emergence herbicidal activity (percentage phytotoxicity) ECHCG POST
[16] = pre-emergence, 480 h, Rate 250 g/ha, pre-emergence, assessed visually 20 DAA, 100%=total damage, 0%=no damage, read-out: Pre-emergence herbicidal activity (percentage phytotoxicity) ECHCG PRE
[17] = post-emergence, 360 h, Rate 250 g/ha, post-emergence, assessed visually 15 DAA, 100%=total damage, 0%=no damage, read-out: Post-emergence herbicidal activity (percentage phytotoxicity) LOLPE POST
[18] = pre-emergence, 480 h, Rate 250 g/ha, pre-emergence, assessed visually 20 DAA, 100%=total damage, 0%=no damage, read-out: Pre-emergence herbicidal activity (percentage phytotoxicity) LOLPE PRE
[19] = post-emergence, 360 h, POST-emergence, rate 250 g/ha, visual score 15 DAA (100%=total damage, 0%=no damage), read-out: Post-emergence herbicidal activity (percentage phytotoxicity) AVEFA POST
[20] = pre-emergence, 480 h, PRE-emergence, rate 250 g/ha, visual score 20 DAA (100%=total damage, 0%=no damage), read-out: Pre-emergence herbicidal activity (percentage phytotoxicity) AVEFA PRE
[21] = post-emergence, 360 h, POST-emergence, rate 250 g/ha, visual score 15 DAA (100%=total damage, 0%=no damage), read-out: Post-emergence herbicidal activity (percentage phytotoxicity) ALOMY POST
[22] = pre-emergence, 480 h, PRE-emergence, rate 250 g/ha, visual score 20 DAA (100%=total damage, 0%=no damage), read-out: Pre-emergence herbicidal activity (percentage phytotoxicity) ALOMY PRE
[23] = post-emergence, 360 h, POST-emergence, rate 250 g/ha, visual score 15 DAA (100%=total damage, 0%=no damage), read-out: Post-emergence herbicidal activity (percentage phytotoxicity) ECHCG POST
[24] = pre-emergence, 480 h, PRE-emergence, rate 250 g/ha, visual score 20 DAA (100%=total damage, 0%=no damage), read-out: Pre-emergence herbicidal activity (percentage phytotoxicity) ECHCG PRE
[25] = post-emergence, 360 h, POST-emergence, rate 250 g/ha, visual score 15 DAA (100%=total damage, 0%=no damage), read-out: Post-emergence herbicidal activity (percentage phytotoxicity) LOLPE POST
[26] = pre-emergence, 480 h, PRE-emergence, rate 250 g/ha, visual score 20 DAA (100%=total damage, 0%=no damage), read-out: Pre-emergence herbicidal activity (percentage phytotoxicity) LOLPE PRE

Structure (SMILES) | pest or weed control at 250 g/ha (Avena fatua (AVEFA); [11]) [%] | pest or weed control at 250 g/ha (Avena fatua (AVEFA); [12]) [%] | pest or weed control at 250 g/ha [1, 13] [%] | pest or weed control at 250 g/ha [1, 14] [%] | pest or weed control at 250 g/ha [2, 15] [%] | pest or weed control at 250 g/ha [2, 16] [%] | pest or weed control at 250 g/ha (Lolium perenne (LOLPE); [17]) [%] | pest or weed control at 250 g/ha (Lolium perenne (LOLPE); [18]) [%] | also measured
Cc1cc(-c2cc(C#N)c(F)cn2)cc(C)c1C1C(=O)CC(CC(=O)NC(C)(C)C)C1=O (stereo not drawn) [Compound B99] |  |  |  |  |  |  |  |  | pest or weed control at 250 g/ha (Avena fatua (AVEFA); [3]): 20%; pest or weed control at 250 g/ha (Avena fatua (AVEFA); [4]): 30%; pest or weed control at 250 g/ha [1, 5]: 70%; pest or weed control at 250 g/ha [1, 6]: 70%; pest or weed control at 250 g/ha [2, 7]: 80%; pest or weed control at 250 g/ha [2, 8]: 70%; pest or weed control at 250 g/ha (Lolium perenne (LOLPE); [9]): 80%; pest or weed control at 250 g/ha (Lolium perenne (LOLPE); [10]): 80%
CC#Cc1cc(C)c(C2C(=O)CC(CC(=O)NCc3cnc(C)cn3)C2=O)c(C)c1 (stereo not drawn) [Compound A144] | 100 | 90 | 80 | 80 | 100 | 100 | 90 | 90 | 
Cc1cc(C)c(C2C(=O)CC(CC(=O)NC3CCc4ccccc43)C2=O)c(C)c1 (stereo not drawn) [Compound A106] | 0 | 0 | 30 | 0 | 20 | 20 | 70 | 70 | 
Cc1cc(-c2ncc(F)cn2)cc(C)c1C1C(=O)CC(CC(=O)NCc2ccc(C(F)(F)F)nc2)C1=O (stereo not drawn) [Compound A136] | 100 | 90 | 100 | 80 | 100 | 90 | 90 | 80 | 
Cc1cc(-c2ncc(F)cn2)cc(C)c1C1C(=O)CC(CC(=O)NC2CC2F)C1=O (stereo not drawn) [Compound B293] |  |  |  |  |  |  |  |  | pest or weed control at 250 g/ha (Avena fatua (AVEFA); [19]): 100%; pest or weed control at 250 g/ha (Avena fatua (AVEFA); [20]): 60%; pest or weed control at 250 g/ha [1, 21]: 100%; pest or weed control at 250 g/ha [1, 22]: 90%; pest or weed control at 250 g/ha [2, 23]: 100%; pest or weed control at 250 g/ha [2, 24]: 90%; pest or weed control at 250 g/ha (Lolium perenne (LOLPE); [25]): 90%; pest or weed control at 250 g/ha (Lolium perenne (LOLPE); [26]): 90%
CC#Cc1cc(C)c(C2C(=O)CC(CC(=O)NCCOC)C2=O)c(CC)c1 (stereo not drawn) [Compound A49] | 100 | 100 | 100 | 100 | 100 | 100 | 100 | 100 | 
Cc1cc(C)c(C2C(=O)CC(CC(N)=O)C2=O)c(C)c1 (stereo not drawn) [Compound B8] |  |  |  |  |  |  |  |  | pest or weed control at 250 g/ha (Avena fatua (AVEFA); [3]): 100%; pest or weed control at 250 g/ha (Avena fatua (AVEFA); [4]): 90%; pest or weed control at 250 g/ha [1, 5]: 80%; pest or weed control at 250 g/ha [1, 6]: 80%; pest or weed control at 250 g/ha [2, 7]: 100%; pest or weed control at 250 g/ha [2, 8]: 90%; pest or weed control at 250 g/ha (Lolium perenne (LOLPE); [9]): 90%; pest or weed control at 250 g/ha (Lolium perenne (LOLPE); [10]): 100%
CC#Cc1cc(C)c(C2C(=O)CC(CC(=O)NC(C)CC)C2=O)c(C)c1 (stereo not drawn) [Compound A33] | 100 | 100 | 100 | 100 | 100 | 100 | 100 | 100 | 
Cc1cc(-n2cc(Cl)cn2)cc(C)c1C1C(=O)CC(CC(=O)NC/C=C/Cl)C1=O (stereo not drawn) [Compound B308] |  |  |  |  |  |  |  |  | pest or weed control at 250 g/ha (Avena fatua (AVEFA); [19]): 100%; pest or weed control at 250 g/ha (Avena fatua (AVEFA); [20]): 80%; pest or weed control at 250 g/ha [1, 21]: 90%; pest or weed control at 250 g/ha [1, 22]: 90%; pest or weed control at 250 g/ha [2, 23]: 100%; pest or weed control at 250 g/ha [2, 24]: 80%; pest or weed control at 250 g/ha (Lolium perenne (LOLPE); [25]): 60%; pest or weed control at 250 g/ha (Lolium perenne (LOLPE); [26]): 80%
CC#Cc1cc(C)c(C2C(=O)CC(CC(=O)NC3CC3)C2=O)c(CC)c1 (stereo not drawn) [Compound A66] | 100 | 100 | 90 | 100 | 100 | 100 | 100 | 100 | 
Cc1ccc(CNC(=O)CC2CC(=O)C(c3c(C)cc(C)cc3C)C2=O)cc1 (stereo not drawn) [Compound B14] |  |  |  |  |  |  |  |  | pest or weed control at 250 g/ha (Avena fatua (AVEFA); [3]): 80%; pest or weed control at 250 g/ha (Avena fatua (AVEFA); [4]): 70%; pest or weed control at 250 g/ha [1, 5]: 70%; pest or weed control at 250 g/ha [1, 6]: 70%; pest or weed control at 250 g/ha [2, 7]: 90%; pest or weed control at 250 g/ha [2, 8]: 70%; pest or weed control at 250 g/ha (Lolium perenne (LOLPE); [9]): 90%; pest or weed control at 250 g/ha (Lolium perenne (LOLPE); [10]): 90%
C#CCNC(=O)CC1CC(=O)C(c2c(C)cc(C)cc2C)C1=O (stereo not drawn) [Compound A10] | 60 | 70 | 80 | 70 | 90 | 90 | 90 | 90 | 
Cc1cc(-c2ncc(Br)cn2)cc(C)c1C1C(=O)CC(CC(=O)N2CCOCC2)C1=O (stereo not drawn) [Compound B285] |  |  |  |  |  |  |  |  | pest or weed control at 250 g/ha (Avena fatua (AVEFA); [19]): 100%; pest or weed control at 250 g/ha (Avena fatua (AVEFA); [20]): 90%; pest or weed control at 250 g/ha [1, 21]: 100%; pest or weed control at 250 g/ha [1, 22]: 90%; pest or weed control at 250 g/ha [2, 23]: 100%; pest or weed control at 250 g/ha [2, 24]: 100%; pest or weed control at 250 g/ha (Lolium perenne (LOLPE); [25]): 100%; pest or weed control at 250 g/ha (Lolium perenne (LOLPE); [26]): 100%
Cc1cc(-c2ncc(F)cc2F)cc(C)c1C1C(=O)CC(CC(=O)NC/C=C/Cl)C1=O (stereo not drawn) [Compound B290] |  |  |  |  |  |  |  |  | pest or weed control at 250 g/ha (Avena fatua (AVEFA); [19]): 100%; pest or weed control at 250 g/ha (Avena fatua (AVEFA); [20]): 100%; pest or weed control at 250 g/ha [1, 21]: 100%; pest or weed control at 250 g/ha [1, 22]: 100%; pest or weed control at 250 g/ha [2, 23]: 100%; pest or weed control at 250 g/ha [2, 24]: 100%; pest or weed control at 250 g/ha (Lolium perenne (LOLPE); [25]): 100%; pest or weed control at 250 g/ha (Lolium perenne (LOLPE); [26]): 100%
CC#Cc1cc(C)c(C2C(=O)CC(CC(=O)NC3CCCC3)C2=O)c(CC)c1 (stereo not drawn) [Compound A52] | 100 | 90 | 100 | 100 | 100 | 90 | 90 | 90 | 

From US10206394B2, “Herbicidal compounds” (Syngenta Participations AG, priority 2014, dated 2019)
